Key:
[1] = test system: Enteropathogenic Escherichia coli (EPEC); assay: Bacteriostatic circle test, EPEC; assay type: cell-based; details: bacteriostatic circle method; strain EPEC; DMSO negative control
Method: (§1) The compounds of the present invention have been tested for antibacterial activity, and a bacteriostatic circle method was used to determine the antibacterial activity.
(§2) Test strains and medium: Enteropathogenic Escherichia coli (EPEC), Enterotoxigenic Escherichia coli (ETEC), Enteroinvasive Escherichia coli (EIEC), Enterohemorrhagic Escherichia coli (EHEC); beef peptone medium.
(§3) Preparation of test strains: (1) test strains were placed in culture medium in test tubes in an incubator (bacteria: 37° C., 24 hours; fungi: 28° C., 48 hours), and stored at 0-4° C.; (2) the test strains were inoculated with a small loop in test tubes containing 9 mL sterile water, mixing well to make suspensions, and adjusting the concentration to 10^6-10^7 cfu·mL^−1. The suspensions were used for bacteriostatic circle test.
(§4) Antibacterial activity determination: solvent dimethyl sulfoxide (DMSO) was used as a negative control, the sizes of antibacterial ring diameters indicated the strength of the antibacterial activities.

[2] = test system: Enterotoxigenic Escherichia coli (ETEC); assay: Bacteriostatic circle test, ETEC; assay type: cell-based; details: bacteriostatic circle method; strain ETEC; DMSO negative control
Method: as §1, §2, §3, §4

[3] = test system: Enteroinvasive Escherichia coli (EIEC); assay: Bacteriostatic circle test, EIEC; assay type: cell-based; details: bacteriostatic circle method; strain EIEC; DMSO negative control
Method: as §1, §2, §3, §4

[4] = test system: Enterohemorrhagic Escherichia coli (EHEC); assay: Bacteriostatic circle test, EHEC; assay type: cell-based; details: bacteriostatic circle method; strain EHEC; DMSO negative control
Method: as §1, §2, §3, §4

[5] = test system: all the four tested bacteria (EPEC, ETEC, EIEC, EHEC); assay: Bacteriostatic circle test, summary over all four tested bacteria; assay type: cell-based, Escherichia coli
Method: as §1, §2, §3, §4

Structure (SMILES)	Circle Size [1] [mm]	Circle Size [2] [mm]	Circle Size [3] [mm]	Circle Size [4] [mm]	antibacterial activities (result in words) [5]
O=C(C1=C(c2ccccc2)OOc2[nH]c3cc(Cl)ccc3c21)c1ccccc1 [Compound 11, (7-chloro-3-phenyl-9H-[1,2]dioxino[3,4-b]indol-4-yl)(phenyl)methanone]	12	12.5	11.5	11.5	–
Cc1ccc2[nH]c3c(c2c1)C(C(=O)c1ccccc1)=C(c1ccccc1)OO3 [Compound 6, (6-methyl-3-phenyl-9H-[1,2]dioxino[3,4-b]indol-4-yl)(phenyl)methanone]	15	15.5	16	16	–
CC(=O)C1=C(C)OOc2[nH]c3ccc(C)cc3c21 [Compound 3, 1-(3,6-dimethyl-9H-[1,2]dioxino[3,4-b]indol-4-yl)ethanone]	17.5	18	17	17	good antibacterial activities
O=C(C1=C(c2ccccc2)OOc2[nH]c3ccc(F)cc3c21)c1ccccc1 [Compound 10, (6-fluoro-3-phenyl-9H-[1,2]dioxino[3,4-b]indol-4-yl)(phenyl)methanone]	10	11	11.5	10.5	–
CC(=O)C1=C(C)OOc2[nH]c3ccc(Cl)cc3c21 [Compound 2, 1-(6-chloro-3-methyl-9H-[1,2]dioxino[3,4-b]indol-4-yl)ethanone]	15	15.5	17	16.5	good antibacterial activities
O=C(C1=C(c2ccccc2)OOc2[nH]c3c(F)cccc3c21)c1ccccc1 [Compound 12, (8-fluoro-3-phenyl-9H-[1,2]dioxino[3,4-b]indol-4-yl)(phenyl)methanon]	14	–	14.5	15	–
O=C(C1=C(c2ccccc2)OOc2[nH]c3ccc(Cl)cc3c21)c1ccccc1 [Compound 5, (6-chloro-3-phenyl-9H-[1,2]dioxino[3,4-b]indol-4-yl)(phenyl)methanone]	13	13.5	14	14.5	–
CC(=O)C1=C(C)OOc2[nH]c3ccccc3c21 [Compound 1, 1-(3-methyl-9H-[1,2]dioxino[3,4-b]indol-4-yl)ethanone]	20	19	21	23	good antibacterial activities
CC(=O)C1=C(C)OOc2[nH]c3cc(Cl)ccc3c21 [Compound 8, 1-(7-chloro-3-methyl-9H-[1,2]dioxino[3,4-b]indol-4-yl)ethanone]	13	14	13.5	13	–
O=C(C1=C(c2ccccc2)OOc2[nH]c3ccccc3c21)c1ccccc1 [Compound 4, phenyl(3-phenyl-9H-[1,2]dioxino[3,4-b]indol-4-yl)methanone]	12	11	11.5	12.5	–
CC(=O)C1=C(C)OOc2[nH]c3ccc(F)cc3c21 [Compound 7, 1-(6-fluoro-3-methyl-9H-[1,2]dioxino[3,4-b]indol-4-yl)ethanone]	17	17.5	16.5	17	–
CC(=O)C1=C(C)OOc2[nH]c3c(F)cccc3c21 [Compound 9, 1-(8-fluoro-3-methyl-9H-[1,2]dioxino[3,4-b]indol-4-yl)ethanone]	15	15.5	14	14.5	–
